The values that follow come from patent US20030021795A1, “Use of coiled-coil structural scaffold to generate structure-specific peptides” (priority 2000, published 2003).

Like-named read-outs stand apart in the source and are kept apart here. Square brackets hold non-standard residues; d marks the D form. Ends that are not written are not given here. Nle = CCCC[C@H](N)C(=O)O

A short description of data set [1]: CD spectroscopy (helical content/conformation of peptides). As to conditions: for conformation by CD in benign buffer: benign buffer (50 mM KH2PO4, 50 mM KCl, pH 7.0), absence of TFE. In kind it is physicochemical. The protocol: Circular dichroism (CD) spectroscopy was performed using a Jasco J-500C spectropolarimeter (Jasco, Easton, Md.) equipped with a Jasco DP-500N data processor. A 10-fold dilution of an ˜[…] stock solution of the disulfide-linked peptide was loaded into a 0.02 cm fused silica cell and ellipticity scanned from 190 to 250 nm. […] A Lauda water bath (model RMS, Brinkmann Instruments, Rexdale, Ont.) was used to control the temperature of the cell. CD spectra were the average of four scans obtained by collecting data at 0.1 nm intervals from 250 to 190 nm.

Data set [2] in a line: Thermal denaturation monitored by [θ]222. It counts as physicochemical. An excerpt: The stability of the peptides may be determined by thermal denaturation assays or chemical denaturation assays such as the guanidine chloride denaturation assay. Such assays are known to those skilled in the art. The stability of the peptides may also be indirectly assessed by inhibition ELISA, wherein the ability of a peptide to inhibit the interaction between an antigen and an antibody serves as an indicator of how stable the peptide is in assuming the necessary conformation to compete with the antigen for the antibody.
In order to determine the stability of CVX0270, a thermal denaturation study was undertaken.

The next data set has as its system anti-Strep serum. It counts as binding, mouse.
In data set [3] the test system is Coiled-Coil Strep Antigen (Strep-BSA coating antigen). In kind it is in vivo, Balb/c mice. As to conditions: for Murine Sera (Day 49) OD 405 nm, Strep-BSA coating antigen: immunogen dose 20 μg.
Data set [4] concerns Streptococcus pneumoniae serotype 3. In kind it is cell-based. As to conditions: antiserum Day 49; immunogen dose 20 μg.
The test system of data set [5] is Coiled-Coil Strep Antigen. Put plainly: Isotyping ELISA of mouse serum antibodies after i.p. immunization. In kind it is in vivo, Balb/c mice. As to conditions: immunogen dose 20 μg.
For data set [6], the system named is Streptococcus pneumoniae serotypes (1, 3, and 5). Put plainly: Opsonization assay with antiserum. In kind it is cell-based.
The subject of data set [7] is Streptococcus pneumoniae serotype 1. It counts as cell-based. The note with it: antiserum Day 49; immunogen dose 20 μg.
The test system of data set [8] is Streptococcus pneumoniae serotype 5. In kind it is cell-based. The note with it: antiserum Day 49; immunogen dose 20 μg.

In the case of “Acetyl-CN1eGEIEALKKKIEELSDKIDELEKEIK-amide [CVX0270]”, in data set [1] (benign conditions), the “ratio of the molar ellipticity at 222 and 208 ([θ]222/[θ]208)” value is “greater than 1.02”. Moreover, the “conformation by CD under aqueous conditions” value in data set [1] (benign conditions (50 mM KH2PO4, 100 mM KCl, pH 7.0)) is “highly helical and found predominantly in the coiled-coil conformation”. Moreover, in [1] (benign conditions (50 mM KH2PO4, 100 mM KCl, pH 7.0), 20° C.), the “molar ellipticity at 222 nm ([θ]222)” value is given as −29800. The helical content worked out at 88% in [1] (benign conditions (50 mM KH2PO4, 100 mM KCl, pH 7.0), 20° C., versus theoretical [θ]222 −33900) and 101% in data set [1] (in the presence of 50% TFE). The “stability in thermal denaturation experiment” value in data set [2] is reported as “very stable”. In data set [2] (at 75° C.), the “% of original helicity retained” value is 77%. Besides, the “inhibition of anti-Strep serum binding (inhibition ELISA)” value (shortened to “inhibition of anti-Strep serum binding”) in the data set with anti-Strep serum is reported as “significant inhibition”.

Regarding “CN1eG IEELEKK ITELKQK IDALENQ IHRLEQE IKELDES (C[Nle]GIEELEKKITELKQKIDALENQIHRLEQEIKELDES) [test peptide]”, the “conformation by CD in benign buffer” value in [1] is given as “exists in helical form even in benign buffer”. Moreover, the “stability in thermal denaturation experiment” value in data set [2] was “much more stable than the native control”.

As to “CN1eG LEEAEKK ATEAKQK VDALENQ VHRLEQE LKEIDES (C[Nle]GLEEAEKKATEAKQKVDALENQVHRLEQELKEIDES) [native control]”, the “conformation by CD in benign buffer” value in data set [1] is recorded as “needs the presence of TFE to form a helical structure”.

As for EEESDKKDEEDAEKAE [Strep #2], the “inhibition of anti-Strep serum binding” value in the data set with anti-Strep serum is on record as “no inhibition”.

Turning to EIEALKKKIEELSDKIDELEKEIK [Strep #1], in the data set with anti-Strep serum, the “inhibition of anti-Strep serum binding” value was “Inhibition was also seen”.

“TT: unconjugated tetanus toxoid carrier protein”: the “antibody titers to the Strep hapten” value in data set [3] (20 μg, 10 μg and 5 μg doses) is “did not elicit any antibodies”. For the same substance, the “Murine Sera (Day 49) OD 405 nm, Strep-BSA coating antigen” value in [3] (serum dilution 1:2000) worked out at 0.11 OD 405 nm; in data set [3] (serum dilution 1:4000), 0.04 OD 405 nm; in data set [3] (serum dilution 1:8000), 0.01 OD 405 nm; in data set [3] (serum dilution 1:16000), 0.06 OD 405 nm; in data set [3] (serum dilution 1:32000), 0.00 OD 405 nm; in [3] (serum dilution 1:64000) it was 0.00 OD 405 nm. Moreover, the “Murine Sera (Day 49) OD 405 nm, Strep-BSA coating antigen” value in data set [3] (serum dilution 1:128000) and in data set [3] (serum dilution 1:256000) was 0.00 OD 405 nm each time. Also, the “Percent Reduction of CFU Type 3” value in [4] turned out to be 6%. In addition, the “Isotype IgG1” value in data set [5] (sera day 6) stood at 0.06 O.D. 405 nm; in data set [5] (sera day 14), 0.05 O.D. 405 nm; in data set [5] (sera day 35) it was 0.08 O.D. 405 nm; in [5] (sera day 49), 0.44 O.D. 405 nm. For the same substance, the “Isotype IgG2a” value in data set [5] (sera day 6) is listed as 0.02 O.D. 405 nm; in [5] (sera day 14), 0.00 O.D. 405 nm; in data set [5] (sera day 35) it was 0.01 O.D. 405 nm; in data set [5] (sera day 49), 0.03 O.D. 405 nm. Further, the “Isotype IgG2b” value in data set [5] (sera day 6) turned out to be 0.01 O.D. 405 nm; in [5] (sera day 14), 0.00 O.D. 405 nm; in data set [5] (sera day 35) it was 0.01 O.D. 405 nm; in [5] (sera day 49) it was 0.02 O.D. 405 nm. Moreover, the “Isotype IgG3” value in data set [5] (sera day 6) worked out at 0.01 O.D. 405 nm; in [5] (sera day 14), 0.01 O.D. 405 nm; in data set [5] (sera day 35), 0.01 O.D. 405 nm; in [5] (sera day 49) it was 0.05 O.D. 405 nm. The “reduction in colony forming units by antisera” value in data set [6] is “Little or no reduction in colony forming units”. For the same substance, in data set [7], the “Percent Reduction of CFU Type 1” value was determined as 7%. Besides, the “Percent Reduction of CFU Type 5” value in data set [8] is 7%.
